# From patent publication US9650404B2 (RESEARCH FOUNDATION OF THE CITY UNIVERSITY OF NEW YORK, priority 2010, dated 2017)
# “Also recorded” adds a separate entry of the source.
# How the values were obtained:
# [1] = biological target: T1, Amyloid βeta (Aβeta) fragment 25-35 (Homo sapiens, UniProt P05067); test: Dissolution of Amyloid beta fragments (transmission electron microscopy); type: biochemical; settings: for concentration at which the compound works in dissolving amyloid aggregates: Aβeta 25-35 50 μg/ml, 37° C., 6 days
# T1 construct: Amyloid βeta (Aβeta) fragment 25-35 (Sigma A-4559); purchased Sigma A-4559
# Method: Amyloid βeta (Aβeta) fragment 25-35 (Sigma A-4559) was diluted in water to a stock of 1 mg/ml. […] Samples were incubated at 37° C. for 6 days. Aggregation of the protein fragment was determined using transmission electron microscopy. 200 mesh carbon coated grids (Electron Microscopy Sciences) were used and prepared for negative staining by adding 5 μl of incubation mixture to the grid surface for one minute, followed by drying the grid with filter paper and contrasting with 5 μl of freshly filtered 2% phosphotungstic acid (pH=7.2) for one minute. Once grids were dry, examination was done using the FEI Tecnai Spirit at the College of Staten Island's Advanced Imaging Facility. Micrographs were captured using an AMT CCD camera.
# [2] = Solubility study via UV-Vis spectroscopy (direct solubility in water)
# [3] = Antioxidant potentiality assay by linoleic acid peroxidation (thiocyanide method); settings: in water, aqueous medium; FIG. 1
# Method: 0.28 gm of linoleic acid, 0.28 gm of tween 40 as emulsifier and 50 ml of phosphate buffer (0.2 M, pH 7) were used to prepare a linoleic acid emulsion. The curcuminoids (5 mg per ml) were dissolved in water and 0.5 ml of each one of them was pipetted out into different test-tubes. Then 2.5 ml of linoleic acid emulsion was added to each one of them followed by the addition of 2.5 ml of phosphate buffer. All the tubes were incubated at 37° C. for 7 days. The mixture prepared as above without test sample was the control one. At the regular interval of 24 hours, 0.1 ml of the aliquots were drawn out of the incubation mixture and mixed with 5 ml of 75% ethanol, 0.1 ml of 30% ammonium thiocyanate and 0.1 ml of 20 mM ferrous chloride in 3.5% HCl. The tubes were allowed to stand in room temperature for 3 minutes. Spectrophotometric analysis was done at 500 nm. All the tests were carried out in duplicate and averaged. Anoxidant activity=[1-increase in absorbance of the sample/increase in absorbance of control]*100.
# [4] = tested on: cultured hippocampal slices (normal brain tissue); test: MTT cell viability assay on cultured hippocampal slices; type: cell-based, mouse; settings: for cell viability (MTT) versus control: overnight, hippocampal slices
# Method: To assess the viability of the normal brain tissue in presence of the sweet curry MTT assay on cultured hippocampal slices were performed.
# Mouse pups of specific ages were anesthetized with ketamine (100 mg/kg) and decapitated. Under sterile conditions, the brains were isolated and then cut at 60° from the longitudinal fissure at the top using a hippocampus-dissecting tool to expose the hippocampus. The hemispheres containing the hippocampi were then placed in modified Gey's balanced salt solution (mGBSS) at 4° C. for 30-40 minutes while bubbling a mixture of 95% O2 and 5% CO2. Individual hippocampi were isolated using dissection tool and then […] thick transverse slices were prepared using a tissue chopper (Stoelting, Wood Dale, Ill., USA). The slices were placed in ice cold mGBSS and inspected using a dissection microscope for the presence of uninterrupted bright transparent neuronal layers characteristic of the hippocampal structure. Only such slices were placed on Millicell CM filters (Millipore, Bedford, Mass., USA). The filters were placed in a six well dish with 1 ml of medium in each well. The slices were kept on high K^+ culture medium (25% horse serum, 50% Basal Essential Media-Eagles, 25% Eagle's Balanced Salt Solution (EBSS), 25 mM Na-HEPES, 1 mM Glutamine, 28 mM Glucose, pH 7.2) for the first two days. After incubation at 32° C. in a 5% CO2 atmosphere, the culture medium was changed to physiological K^+ slice culture medium (20% dialyzed fetal bovine serum, 5% Basal Essential Media-Eagles, and EBSS modified to adjust the K^+ concentration to 2.66 mM). After 20% dialyzed serum treatment for two days and the slices were placed in 5% serum medium (same medium as above but with 5% serum) for two days.
# Hippocampal slices from adult mice brain were cultured as described by Mehta et al (2007). After six days in vitro the slices were treated with different concentrations of the sweet curry (i.e., 8 nM, 8 μM and 80 μM respectively) overnight along with the slices treated with the carrier as control.
# After the treatment with sweet curry, slices from each treatment group were placed in 400 μl PBS in one well of 48-well plate and then treated with 200 μl of MTT (5 mg/ml) per well with gentle mixing at 37° C. for 2 hours. The slices were triturated to homogenize with the help of a micropipette. After that 800 μl of lysis buffer (20% SDS, 50% dimethylformamide) was added to each well and the plate was sealed and incubated overnight at 37° C. with gentle mixing. Now 100 μl mix from each well was taken in respective wells of a 96 well plate in triplicates and absorbance was measured at 570 nm using a plate reader. Results obtained were normalized to the total protein content and then expressed as percent carrier-treated samples.
Structure (SMILES),concentration at which the compound works in dissolving amyloid aggregates ([1]; electron micrographs),"solubility ([2]; deionized water, water, thermodynamic from solid)","solubility in water relative to curcumin and derivatives ([2]; water (plasma model), listed as Sweet curry 1d)","anti-oxidant potential (AOP), comparison in words [3]",effectiveness in dissolving amyloid aggregates ([1]; electron micrographs),effectiveness in dissolving amyloid aggregates relative to curcumin ([1]; ratio of working concentrations),"effect on normal brain tissue (viability), conclusion ([4]; 8 nM to 80 μM)",cell viability (MTT) versus control ([4]; 8 nM),cell viability (MTT) versus control ([4]; 8 μM),cell viability (MTT) versus control ([4]; 80 μM)
"COc1cc(/C=C/C(=O)CC(=O)/C=C/c2ccc(O)c(OC)c2)ccc1O [curcumin, (1E,6E)-1,7-bis(4-hydroxy-3-methoxyphenyl)hepta-1,6-diene 3,5-dione, reference compound]",8 µM,,,,,,,,,
"COc1cc(/C=C/C(=O)CC(=O)/C=C/c2ccc(OCc3cn(CCOCCOCCOC4OC(CO)C(O)C(O)C4O)nn3)c(OC)c2)ccc1O (centres unmarked) [Compound 1d, curcumin-“Clicked”-mono-galactose]",8 nmol,6 mM,far superior solubility compared to curcumin in water; also recorded: superiorly soluble in water compared to Curcumin and derivatives 1a and 1b,"much better antioxidant than Curcumin 1 as well as other curcumin derivatives (1a,1b)",significantly more effective than curcumin in dissolving amyloid aggregates,1000 times,no harmful effect on the normal brain tissue,near the control samples,near the control samples,a little higher than the control samples
